From patent US10882826B2, “Quinolinone or quinazolinone comprising antibiofilm compositions, compounds and methods and uses relating thereto” (University College Cork—National University of Ireland, priority 2015, dated 2021)

Columns and labels:
[1] = test system: C. albicans strain SC5314 biofilm; test: XTT metabolic assay of C. albicans biofilm; type: cell-based, Candida albicans; details: for XTT result, Mean (MeOH control = 1) / Absorbance at 492 nm, Mean (XTT): C. albicans biofilm; for Absorbance at 492 nm, Mean (XTT): test compound 100 μM, 24 hr, MeOH control 0.647, untreated 0.851
Method: C. albicans strain SC5314 was sub-cultured from 15% (v/v) glycerol stocks at −80° C. onto Yeast Peptone Dextrose (YPD) medium [1% (w/v) yeast extract, 2% (w/v) peptone and 2% (w/v) dextrose] and incubated at 30° C. overnight.
The test compounds in desiccated form were re-suspended in Methanol to create a 10 mM stock. […]
The ability of some of the compounds detailed in example 1 to disrupt Candida albicans was tested using Confocal Scanning Laser Microscopy and an XTT Metabolic Assay. The XTT assay is a commonly used quantitative method assessing Candida biofilm mass and growth often in response to novel drug therapies.
C. albicans biofilm formation was carried out in 96 well plates by a method of the prior art. Briefly, C. albicans was inoculated into Yeast Nitrogen Base [10% (w/v)] and glucose/maltose [10% (w/v)] and incubated overnight at 30° C. Seeding densities for all subsequent experiments (N=3) were OD600=0.05. Cells were grown in Yeast Nitrogen Base supplemented with 1 M Phosphate buffer and acetyl-D-glucosamine (YNB-NP) along with appropriate volumes of test compound to provide the desired concentration. Cells were cultured in 96 well plates for 1 hr at 37° C. to facilitate yeast attachment. After this incubation, the supernatants were aspirated, the wells washed twice with YNB-NP media, and fresh media with the same concentration of test compound added to the appropriate wells. The plate was incubated for 24 hr at 37° C. The next day, the cultures were aspirated and the wells washed once with YNB-NP media.
C. albicans biofilm quantification was carried out in 96 well plates using a semi-quantitative Tetrazolium salt, 2,3-bis-(2-methoxy-4-nitro-5-sulfophenyl)-2H tetrazolium-5-carboxanilide inner salt (XTT) reduction assay (Hawser, Tunney et al, Antimicrob Agents Chemother. 2004 May; 48(5):1879-81). XTT (0.01 g) was dissolved in sterile water (20 ml) and filter sterilized. 10 μl of Menadione dissolved in Acetone was added to the XTT solution, just before use. The XTT-Menadione Solution (100 μl) was added to each well. The plate was incubated in the dark at 37° C. for up to 2 hr to allow for colour development. The OD492 nm was recorded for each well. Experiments were repeated at least three times, with at least eight technical replicates.
Experiments were first carried out using the test compound at concentration of 100 μM.

[2] = test system: IB3 lung epithelial cells; test: LDH release cytotoxicity, IB3-1 cells; type: cell-based; details: 100 μM, 16 hr, percentage of 0.1% Triton (100% cytotoxicity), MeOH 3.844
Method: (§1) Lactate dehydrogenase (LDH) release from IB3 lung epithelial cells was assayed as a measure of cytotoxicity using an LDH colorimetric kit (Roche) according to manufacturers' instructions. Briefly, IB3-1 cells were seeded onto 96 well plates and treated with methanol (control) and test compounds (100 μM). Following 16 hr incubation at 37° C. and 5% CO2, supernatants were removed and added to catalyst reaction mixture in a fresh plate and further incubated at 37° C. and 5% CO2 for 30 mins to allow for colour development. After this period, the plate was analysed on an ELISA plate reader at OD490 nm. Cytotoxicity was expressed as a percentage of cells treated with 0.1% (v/v) Triton (100% cytotoxicity).

[3] = test system: DU145; test: LDH release cytotoxicity, DU145; type: cell-based; details: DU145 cell line; percentage of 0.1% Triton
Method: as §1, with “cytotoxicity). The results are detailed in table 3:” for “cytotoxicity).”
(§2) The above experiments were repeated, testing some compounds against further cell lines (A549, DU145 and HeLa).

[4] = test system: P. aeruginosa PAO1 pqsA-pqsA-lacZ strain; test: Phenazine extraction (phenazine production); type: cell-based; details: PAO1 pqsA-pqsA-lacZ strain, test compounds 10 μM, 24 hr; methanol control 0.080
Method: (§3) P. aeruginosa strains, PAO1 and pqsA mutant, containing the chromosomally inserted pqsA-lacZ promoter fusion on plasmid pUC18-mini-Tn7, were sub-cultured from glycerol stocks onto LB agar plates, supplemented with Carbenicillin (200 μg/ml) and X-gal (40 μg/ml), and incubated at 37° C. overnight. Single colonies were inoculated into LB broth (20 ml), supplemented with Carbenicillin (200 μg/ml), and incubated at 37° C., shaking at 180 rpm overnight. For subsequent experiments, the OD600 nm was recorded and a starting OD600 nm of 0.02 was inoculated into fresh LB broth, supplemented with Carbenicillin (200 μg/ml) and incubated at 37° C., shaking at 180 rpm.
(§4) P. aeruginosa strains were cultured as described above for 24 hr, with the addition of test compounds (10 μM). Cultures were centrifuged at 4000 rpm for 10 minutes and the cell free supernatant (5 ml) removed. Chloroform (3 ml) was added, and mixed by vortex. After centrifugation at 4000 rpm for 5 mins, the lower aqueous phase was transferred to 0.2 M HCl (2 ml). Samples were mixed by vortex and centrifuged at 4000 rpm for 5 mins to separate the phases. An aliquot of the top phase (1 ml) was removed and spectrophotmetrically analysed at OD570 nm. Phenazine production was calculated using the following formula: OD570 nm×2×17.072 and the units expressed in μg/ml.
(§5) The phenazine production levels and Miller units in the PAO1 pqsA-pqsA-lacZ strain are detailed in table 5.
(§6) The virulence of compounds B2, C13 and C15 towards P. aeruginosa was assessed using an analogous method.

[5] = test system: pqsA-lacZ promoter fusion; test: Promoter fusion based expression analysis (pqsA-lacZ, Miller units); type: cell-based, P. aeruginosa; details: PAO1 pqsA-pqsA-lacZ strain, 100 μM, overnight; methanol control 12287
Method: as §3
Promoter fusion analyses were performed in a 96-well format. Briefly, overnight cultures of wild-type PAO1 pqsA-lacZ (pLP0996) and mutant strain PAO1 pqsA^− pqsA-LacZ were diluted to OD600 nm=0.02 in LB. Test compounds at 100 μM final concentration were added, mixed, aliquoted into 96 well plates and incubated overnight at 37° C. with shaking. The next day, OD600 nm values were recorded in a plate reader. Aliquots of cells (0.02 ml) were permeabilised [100 mM dibasic sodium phosphate (Na2HPO4), 20 mM KCl, 2 mM MgSO4, 0.8 mg/mL CTAB (hexadecyltrimethylammonium bromide), 0.4 mg/mL sodium deoxycholate, 5.4 μL/mL beta-mercaptoethanol] and added to substrate solution [60 mM Na2HPO4, 40 mM NaH2PO4, 1 mg/mL o-nitrophenyl-β-D-Galactoside (ONPG), 2.7 μL/mL β-mercaptoethanol]. The kinetics of colour development was monitored and the reactions were stopped using 1M NaCO3. OD420 nm were recorded as above. Miller units were calculated using the following equation; 1000×[OD420 nm/(OD600 nm)×0.02 ml×reaction time (mins)].
as §5, §6

[6] = test system: Pseudomonus aeruginosa; test: Virulence of Pseudomonas aeruginosa (summary statement); type: cell-based; details: unlike HHQ and PQS
Method: The virulence of compounds B1, B2, C2, C3, C4, C5, C6, C8 and C11 towards P. aeruginosa was assessed using the following method:
as §4, with “μg/ml. […]” for “μg/ml.”

[7] = test system: A. fumigatus Af293 biofilm; test: A. fumigatus biofilm assay (crystal violet); type: cell-based, Aspergillus fumigatus
Method: A. fumigatus Af293 was routinely grown on Sabouraud dextrose agar (SDA) in 100 ml cell culture flasks at 37° C. for 3-4 days until a lawn of fungal growth was observed.
(§7) A. fumigatus Af293 was grown on SDA in 100 ml cell culture flasks at 37° C. for 3-4 days. Conidia were harvested by flooding the surface of the agar plates with 5 ml PBS (Oxoid) containing 0.025% (v/v) Tween 20 and gently moving the liquid over the surface of the fungal lawn. The conidial suspension was transferred into a 25 ml sterile container and conidia were counted using a Neubauer haemocytometer and light microscope. Conidia were adjusted to the required concentration in RPMI 1640 (Sigma) buffered to pH 7.0 with 0.165 M MOPS immediately prior to biofilm formation analysis.
(§8) To assess biofilm formation, counted A. fumigatus spores (1×10^5) in MOPS buffered RPMI 1640 were inoculated into 24- and 96-well plates and grown overnight in the presence of 100 μM HHQ, PQS and the test compounds. After 24 hrs, the media was removed and the biofilm washed twice with distilled water after which 0.1% crystal violet (CV) was added to each well and allowed to stand for 1 hr at room temperature. The crystal violet was removed and all wells washed in a water bath by inversion. Ethanol was added to each well to solubilise biofilms after which samples were read on a spectrophotometer at Abs595 nm.

[8] = test system: A. fumigatus CFBRC1 biofilm; test: A. fumigatus biofilm assay, clinical source CFBRC1; type: cell-based, Aspergillus fumigatus; details: biofilm from clinical source CFBRC1
Method: as §7, §8
(§9) The above experiments were carried out using biofilms grown from laboratory sources of A. fumigatus. The experiments were repeated to test some compounds against biofilms grown from three different clinical sources of A. fumigatus (CFBRC1, CFBRC2 and CFBRC3. The results are shown in table 8: […]

[9] = test system: A. fumigatus CFBRC2 biofilm; test: A. fumigatus biofilm assay, clinical source CFBRC2; type: cell-based, Aspergillus fumigatus; details: biofilm from clinical source CFBRC2
Method: as §7, §8, §9

[10] = test system: A. fumigatus CFBRC3 biofilm; test: A. fumigatus biofilm assay, clinical source CFBRC3; type: cell-based, Aspergillus fumigatus; details: biofilm from clinical source CFBRC3
Method: as §7, §8, §9

[11] = test system: mammalian cells; test: Cytotoxicity towards mammalian cells (summary statement); type: cell-based
Method: as §1, with “cytotoxicity). The results are detailed in table 3:” for “cytotoxicity).”
as §2

Row | SMILES | XTT result, Mean (MeOH control = 1) ([1]; 10 μM) | XTT result, Mean (MeOH control = 1) ([1]; 50 μM) | XTT result, Mean (MeOH control = 1) ([1]; 100 μM) | Absorbance at 492 nm, Mean (XTT) [1] | effectiveness against fungal biofilms formed by Candida albicans (in words) ([1]; summary statement) | % Cytotoxicity, Mean (LDH release) [2] | Cytotoxicity, Mean (LDH release) [3] | Phenazine, Mean [4] | Miller Units, Mean [5] | effect on virulence of Pseudomonus aeruginosa (in words) [6] | Relative absorbance at 595 nm compared to methanol control, Mean ([7]; A. fumigatus Af293 biofilm, 100 μM, 24 hrs, crystal violet) | effectiveness against fungal biofilms formed by Aspergillus fumigatus (in words) ([7]; summary statement) | Relative absorbance compared to MeOH (=1), Mean [8] | Relative absorbance compared to MeOH (=1), Mean [9] | Relative absorbance compared to MeOH (=1), Mean [10] | cytotoxicity towards mammalian cells (in words) [11]
1 | CCCCCCCc1cc(=O)c2cc(C)ccc2[nH]1 [Compound C3] | 0.71 | 0.57 | 0.51 | 0.307 | effective | 23.77% | 32.42% | 0.774 µg/mL | 18350 Miller Units | do not increase the virulence |  |  |  |  |  | 
2 | CCCCCCCCCc1cc(=O)c2ccccc2[nH]1 [Compound C10] | 0.58 | 0.50 | 0.53 | 0.419 |  |  | 31.7% |  |  | do not increase the virulence | 0.24 | effective | 0.772 | 0.567 | 0.670 | reduced cytotoxicity
